The compounds below were run against T1, human type 1 glycine transporter (GlyT1) (Homo sapiens, UniProt P48067) (assay: Glycine uptake inhibition experiment ([3H]glycine uptake)). Conditions: GlyT1.
T1 construct: T98G cells (glioma cells) expressing human type 1 glycine transporter (GlyT1) were used
T1 sequence (P48067 1-706): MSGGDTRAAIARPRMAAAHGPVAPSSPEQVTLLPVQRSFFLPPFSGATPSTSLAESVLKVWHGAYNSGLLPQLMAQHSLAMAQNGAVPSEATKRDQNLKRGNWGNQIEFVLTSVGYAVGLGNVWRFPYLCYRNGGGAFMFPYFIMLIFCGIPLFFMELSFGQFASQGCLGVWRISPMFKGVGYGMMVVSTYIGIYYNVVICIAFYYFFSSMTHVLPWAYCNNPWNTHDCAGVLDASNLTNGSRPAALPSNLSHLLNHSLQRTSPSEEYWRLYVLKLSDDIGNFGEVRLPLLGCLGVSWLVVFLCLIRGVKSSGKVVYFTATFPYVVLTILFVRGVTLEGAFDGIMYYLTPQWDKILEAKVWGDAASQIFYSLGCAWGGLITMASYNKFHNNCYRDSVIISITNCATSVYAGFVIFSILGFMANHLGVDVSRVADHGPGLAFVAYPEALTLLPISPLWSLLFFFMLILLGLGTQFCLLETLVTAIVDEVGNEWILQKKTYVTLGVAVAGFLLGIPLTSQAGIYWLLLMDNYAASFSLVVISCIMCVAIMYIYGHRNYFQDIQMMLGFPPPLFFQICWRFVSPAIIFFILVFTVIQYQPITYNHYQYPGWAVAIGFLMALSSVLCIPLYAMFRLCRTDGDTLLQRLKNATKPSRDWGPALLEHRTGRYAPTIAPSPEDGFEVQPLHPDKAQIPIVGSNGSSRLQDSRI
Assay type: cell-based
Procedure, shortened: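 T98G glioma cells expressing human GlyT1 were pretreated 10 min with compound in HEPES buffer pH 7.4 (0.2% BSA), then incubated with compound plus 250 nM final [3H]glycine for 15 min at room temperature. Intracellular radioactivity was counted after NaOH lysis; 10 μM ALX5407 defined non-specific uptake. IC50 came from 10^−9–10^−5 M curves.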
Work on CS(=O)(=O)c1cc(C(F)(F)F)cnc1C(=O)NC(c1cccc(F)c1Cl)[C@]1(O)CC[C@@H](F)CC1 (single isomer, unassigned) [Compound 389, N-[(2-chloro-3-fluorophenyl)(cis-4-fluoro-1-hydroxycyclohexyl)methyl]-3-(methylsulfonyl)-5-(trifluoromethyl)pyridine-2-carboxamide] yielded an IC50 of 1800 nM. Compound O=C(NC(c1cccc(F)c1Cl)[C@]1(O)CC[C@@H](F)CC1)c1ccc(C(F)(F)F)cc1-n1cccn1 (single isomer, unassigned) [Compound 390, N-[(2-chloro-3-fluorophenyl)(cis-4-fluoro-1-hydroxycyclohexyl)methyl]-2-(1H-pyrazol-1-yl)-4-(trifluoromethyl)benzamide] has an IC50 of 130 nM. In the case of O=C(NC(c1cccc(F)c1Cl)[C@]1(O)CC[C@@H](F)CC1)c1ccc(C(F)(F)F)cc1-n1cnnn1 (single isomer, unassigned) [Compound 391, N-[(2-chloro-3-fluorophenyl)(cis-4-fluoro-1-hydroxycyclohexyl)methyl]-2-(1H-tetrazol-1-yl)-4-(trifluoromethyl)benzamide], the IC50 is reported as 27 nM. O=C(NC(c1cccc(F)c1Cl)[C@]1(O)CC[C@@H](F)CC1)c1ncc(C(F)(F)F)cc1-n1nccn1 (single isomer, unassigned) [Compound 392, N-[(2-chloro-3-fluorophenyl)(cis-4-fluoro-1-hydroxycyclohexyl)methyl]-3-(2H-1,2,3-triazol-2-yl)-5-(trifluoromethyl)pyridine-2-carboxamide] showed an IC50 of 110 nM. Compound O=C(NC(c1cccc(F)c1Cl)[C@]1(O)CC[C@@H](F)CC1)c1ccc(C(F)(F)F)nc1-n1nccn1 (single isomer, unassigned) [Compound 393, N-[(2-chloro-3-fluorophenyl)(cis-4-fluoro-1-hydroxycyclohexyl)methyl]-2-(2H-1,2,3-triazol-2-yl)-6-(trifluoromethyl)pyridine-3-carboxamide] has an IC50 of 40 nM. O=C(NC(c1cccc(F)c1Cl)[C@]1(O)CC[C@@H](F)CC1)c1ccc(C(F)(F)F)nc1-n1ccnn1 (single isomer, unassigned) [Compound 394, N-[(2-chloro-3-fluorophenyl)(cis-4-fluoro-1-hydroxycyclohexyl)methyl]-2-(1H-1,2,3-triazol-1-yl)-6-(trifluoromethyl)pyridine-3-carboxamide] gave an IC50 of 1300 nM. In the case of CS(=O)(=O)c1ccc(C(F)(F)F)cc1C(=O)NC(c1ccccc1Cl)C1(O)CCC(F)(F)CC1 (single isomer, unassigned) [Compound 395, N-[(2-chlorophenyl)(4,4-difluoro-1-hydroxycyclohexyl)methyl]-2-(methylsulfonyl)-5-(trifluoromethyl)benzamide], the IC50 is reported as 330 nM. Work on CS(=O)(=O)c1ccc(C(F)(F)F)cc1C(=O)NC(c1cc(Cl)ccn1)[C@]1(O)CC[C@@H](F)CC1 (single isomer, unassigned) [Compound 396, N-[(4-chloropyridin-2-yl)(cis-4-fluoro-1-hydroxycyclohexyl]methyl]-2-(methylsulfonyl)-5-(trifluoromethyl)benzamide] yielded an IC50 of 290 nM. With CCn1cc(-c2cccc(C(NC(=O)c3cccc(C(F)(F)F)c3Cl)C3(O)CCCC3)c2)cn1 (stereo not shown) [Compound 1, 2-chloro-N-{[3-(1-ethyl-1H-pyrazol-4-yl)phenyl](1-hydroxycyclopentyl)methyl}-3-(trifluoromethyl)benzamide] the IC50 was 110 nM. In the case of O=C(NC(c1cccc(Br)c1)C1(O)CCCC1)c1cccc(C(F)(F)F)c1Cl (stereo not shown) [Compound 2, N-[(3-bromophenyl)(1-hydroxycyclopentyl)methyl]-2-chloro-3-(trifluoromethyl)benzamide], the IC50 is reported as 670 nM. O=C(NC(c1cccc(-c2cccnc2)c1)C1(O)CCCC1)c1cccc(C(F)(F)F)c1Cl (stereo not shown) [Compound 3, 2-chloro-N-{(1-hydroxycyclopentyl)[3-(pyridin-3-yl)phenyl]methyl}-3-(trifluoromethyl)benzamide] was tested, and the IC50 was 360 nM. For O=C(NC(c1cccc(-c2ccncc2)c1)C1(O)CCCC1)c1cccc(C(F)(F)F)c1Cl (stereo not shown) [Compound 4, 2-chloro-N-{(1-hydroxycyclopentyl)[3-(pyridin-4-yl)phenyl]methyl}-3-(trifluoromethyl)benzamide], the IC50 was 400 nM. For N#Cc1ccc(-c2cccc(C(NC(=O)c3cccc(C(F)(F)F)c3Cl)C3(O)CCCC3)c2)cc1 (stereo not shown) [Compound 5, 2-chloro-N-[(4′-cyanobiphenyl-3-yl)(1-hydroxycyclopentyl)methyl]-3-(trifluoromethyl)benzamide], the IC50 was 880 nM.

Same assay, conditions: human GlyT1
Compound O=C(NC(c1cccc(Cl)n1)C1(O)CCCC1)c1nccc(C(F)(F)F)c1Cl (single isomer, unassigned) [Compound 397, 3-chloro-N-[(6-chloropyridin-2-yl)(1-hydroxycyclopentyl)methyl]-4-(trifluoromethyl)pyridine-2-carboxamide] has an IC50 of 16 nM. Compound O=C(NC(c1cccc(Cl)n1)C1(O)CCCC1)c1nccc(C(F)(F)F)c1Cl (single isomer, unassigned) [Compound 398, 3-chloro-N-[(6-chloropyridin-2-yl)(1-hydroxycyclopentyl)methyl]-4-(trifluoromethyl)pyridine-2-carboxamide] has an IC50 of 7500 nM. O=C(NC(c1cccc(F)c1)C1(O)CCC(F)(F)CC1)c1ccnc(C(F)(F)F)c1Cl (single isomer, unassigned) [Compound 400, 3-chloro-N-[(4,4-difluoro-1-hydroxycyclohexyl)(3-fluorophenyl)methyl]-2-(trifluoromethyl)pyridine-4-carboxamide] showed an IC50 of 230 nM. CS(=O)(=O)c1cc(C(F)(F)F)ccc1C(=O)NC(c1cccc(F)c1Cl)C1(O)CCC(F)(F)CC1 (single isomer, unassigned) [Compound 401, N-[(2-chloro-3-fluorophenyl)(4,4-difluoro-1-hydroxycyclohexyl)methyl]-2-(methylsulfonyl)-4-(trifluoromethyl)benzamide] was tested, and the IC50 was 230 nM. CS(=O)(=O)c1cc(C(F)(F)F)ccc1C(=O)NC(c1cccc(Cl)c1F)C1(O)CCC(F)(F)CC1 (single isomer, unassigned) [Compound 402, N-[(3-chloro-2-fluorophenyl)(4,4-difluoro-1-hydroxycyclohexyl)methyl]-2-(methylsulfonyl)-4-(trifluoromethyl)benzamide] was tested, and the IC50 was 450 nM. In the case of CS(=O)(=O)c1cnc(C(F)(F)F)cc1C(=O)NC(c1ccccc1Cl)C1(O)CCC(F)(F)CC1 (single isomer, unassigned) [Compound 403, N-[(2-chlorophenyl)(4,4-difluoro-1-hydroxycyclohexyl)methyl]-5-(methylsulfonyl)-2-(trifluoromethyl)pyridine-4-carboxamide], the IC50 is reported as 120 nM. Compound CS(=O)(=O)c1ncc(C(F)(F)F)cc1C(=O)NC(c1ccccc1Cl)C1(O)CCC(F)(F)CC1 (single isomer, unassigned) [Compound 404, N-[(2-chlorophenyl)(4,4-difluoro-1-hydroxycyclohexyl)methyl]-2-(methylsulfonyl)-5-(trifluoromethyl)pyridine-3-carboxamide] has an IC50 of 170 nM. Work on CS(=O)(=O)c1cc(C(F)(F)F)ccc1C(=O)NC(c1ccccc1Cl)C1(O)CCC(F)(F)CC1 (single isomer, unassigned) [Compound 405, N-[(2-chlorophenyl)(4,4-difluoro-1-hydroxycyclohexyl)methyl]-2-(methylsulfonyl)-4-(trifluoromethyl)benzamide] yielded an IC50 of 200 nM. With CS(=O)(=O)c1nc(C(F)(F)F)ccc1C(=O)NC(c1ccccc1Cl)C1(O)CCC(F)(F)CC1 (single isomer, unassigned) [Compound 406, N-[(2-chlorophenyl)(4,4-difluoro-1-hydroxycyclohexyl)methyl]-2-(methylsulfonyl)-6-(trifluoromethyl)pyridine-3-carboxamide] the IC50 was 320 nM. In the case of O=C(NC(c1ccccc1Cl)C1(O)CCC(F)(F)CC1)c1ncc(C(F)(F)F)cc1-n1nccn1 (single isomer, unassigned) [Compound 407, N-[(2-chlorophenyl)(4,4-difluoro-1-hydroxycyclohexyl)methyl]-3-(2H-1,2,3-triazol-2-yl)-5-(trifluoromethyl)pyridine-2-carboxamide], the IC50 is reported as 1000 nM. O=C(NC(c1ccccc1Cl)C1(O)CCC(F)(F)CC1)c1ccc(C(F)(F)F)nc1-n1nccn1 (single isomer, unassigned) [Compound 408, N-[(2-chlorophenyl)(4,4-difluoro-1-hydroxycyclohexyl)methyl]-2-(2H-1,2,3-triazol-2-yl)-6-(trifluoromethyl)pyridine-3-carboxamide] gave an IC50 of 2200 nM. Work on O=C(NC(c1ccccc1Cl)C1(O)CCC(F)(F)CC1)c1ccc(C(F)(F)F)nc1Cl (single isomer, unassigned) [Compound 409, 2-chloro-N-[(2-chlorophenyl)(4,4-difluoro-1-hydroxycyclohexyl)methyl]-6-(trifluoromethyl)pyridine-3-carboxamide] yielded an IC50 of 1100 nM.

Source: patent publication US20160130278A1 (TAISHO PHARMACEUTICAL CO., LTD, priority 2013, published 2016)
